Here are results for 32 molecules from patent publication US8435980B2 (AbbVie Inc., priority 2009, dated 2013).

In the assay the target is T1, Cdc7 (BEV coexpressed huCDC7/DBF4) (Homo sapiens, UniProt O00311).
T1 construct: made in house; host or cells: BEV (baculovirus expression vector) co-expression; insect cells are implied but no cell line is named
Kind of assay: Cdc7 enzyme inhibition assay ([33P]ATP, biotinylated peptide substrate, FlashPlate). The note with it: Table 3; enzyme inhibition data (Ki). In kind it is biochemical. As for the experimental part: Cdc7 (BEV coexpressed huCDC7/DBF4) is prepared internally. Cdc7 assays are conducted as follows with final concentrations as listed. […] Reactions are quenched after 1 hr by the addition of 90 μL stop buffer (50 mM EDTA, 2M NaCl). […] (Ki) for exemplary compounds.

Bounds are passed on as bounds.

T1 sequence (O00311 whole entry): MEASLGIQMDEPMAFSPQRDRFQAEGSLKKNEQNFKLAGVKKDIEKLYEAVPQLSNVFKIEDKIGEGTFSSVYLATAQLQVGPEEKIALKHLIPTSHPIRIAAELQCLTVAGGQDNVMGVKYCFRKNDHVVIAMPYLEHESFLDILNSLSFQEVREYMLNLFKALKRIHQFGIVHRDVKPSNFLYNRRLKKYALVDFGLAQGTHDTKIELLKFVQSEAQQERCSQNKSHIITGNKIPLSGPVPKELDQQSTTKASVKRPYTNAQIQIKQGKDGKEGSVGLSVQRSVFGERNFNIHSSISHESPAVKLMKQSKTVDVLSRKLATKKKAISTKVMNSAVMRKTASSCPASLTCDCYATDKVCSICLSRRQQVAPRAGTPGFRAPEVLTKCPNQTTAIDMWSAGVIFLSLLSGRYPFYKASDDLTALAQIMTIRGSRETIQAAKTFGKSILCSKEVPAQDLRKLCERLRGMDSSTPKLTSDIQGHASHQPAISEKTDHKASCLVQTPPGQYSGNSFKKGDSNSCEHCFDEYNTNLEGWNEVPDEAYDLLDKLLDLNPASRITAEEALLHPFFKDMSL
T1 sequence (Q9UBU7 whole entry partner): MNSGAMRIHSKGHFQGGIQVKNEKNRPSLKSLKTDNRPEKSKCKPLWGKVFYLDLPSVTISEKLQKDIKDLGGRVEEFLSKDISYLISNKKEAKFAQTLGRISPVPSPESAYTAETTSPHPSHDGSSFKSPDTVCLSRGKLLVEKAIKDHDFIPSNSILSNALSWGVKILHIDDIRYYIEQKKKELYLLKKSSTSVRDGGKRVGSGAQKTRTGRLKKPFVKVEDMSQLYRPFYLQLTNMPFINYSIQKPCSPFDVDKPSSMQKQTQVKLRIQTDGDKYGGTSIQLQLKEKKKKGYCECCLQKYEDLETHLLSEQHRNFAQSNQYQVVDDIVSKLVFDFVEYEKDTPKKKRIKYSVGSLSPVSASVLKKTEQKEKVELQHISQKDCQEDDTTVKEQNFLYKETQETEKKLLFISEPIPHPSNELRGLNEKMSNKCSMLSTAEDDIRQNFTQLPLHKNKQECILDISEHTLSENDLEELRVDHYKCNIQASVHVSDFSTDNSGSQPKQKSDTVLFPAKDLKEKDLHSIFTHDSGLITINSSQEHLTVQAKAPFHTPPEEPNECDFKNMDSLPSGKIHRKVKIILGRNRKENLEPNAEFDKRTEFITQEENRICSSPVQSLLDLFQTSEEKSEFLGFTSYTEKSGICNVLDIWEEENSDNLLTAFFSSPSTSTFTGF

In the case of `CCS(=O)(=O)N[C@H]1CC[C@H](Nc2cc(-c3c[nH]c4ncccc34)cc(Cl)n2)CC1` [Example 312, N-(trans-4-{[6-chloro-4-(1H-pyrrolo[2,3-b]pyridin-3-yl)pyridin-2-yl]amino}cyclohexyl)ethanesulfonamide], the Ki (commonly the dissociation constant of the complex between target and ligand, obtained from inhibition or displacement) was below 0.01 µM.

The molecule `CCCCS(=O)(=O)NCCNc1cc(-c2c[nH]c3ncccc23)cc(Cl)n1` [Example 313, N-(2-{[6-chloro-4-(1H-pyrrolo[2,3-b]pyridin-3-yl)pyridin-2-yl]amino}ethyl)butane-1-sulfonamide] gave a Ki below 0.01 µM.

As for `O=S(=O)(NCCNc1cc(-c2c[nH]c3ncccc23)cc(Cl)n1)c1cccs1` [Example 314, N-(2-{[6-chloro-4-(1H-pyrrolo[2,3-b]pyridin-3-yl)pyridin-2-yl]amino}ethyl)thiophene-2-sulfonamide], the Ki was below 0.01 µM.

Regarding `CN1CCCC(Nc2cc(-c3c[nH]c4ncccc34)cc(Cl)n2)C1` (centres unmarked) [Example 315, 6-chloro-N-(1-methylpiperidin-3-yl)-4-(1H-pyrrolo[2,3-b]pyridin-3-yl)pyridin-2-amine], the Ki is below 0.01 µM.

Turning to `O=C(C1CC1)N1CCCC(CNc2cc(-c3c[nH]c4ncccc34)cc(Cl)n2)C1` (centres unmarked) [Example 316, [3-({[6-chloro-4-(1H-pynolo[2,3-b]pyridin-3-yl)pyridin-2-yl]amino}methyl)piperidin-1-yl](cyclopropyl)methanone], the inhibition constant (Ki) was below 0.01 µM.

Molecule `O=C(C1CC1)N1CCCC(CN(C(=O)C2CC2)c2cc(-c3c[nH]c4ncccc34)cc(Cl)n2)C1` (centres unmarked) [Example 317, N-[6-chloro-4-(1H-pyrrolo[2,3-b]pyridin-3-yl)pyridin-2-yl]-N-{[1-(cyclopropylcarbonyl)piperidin-3-yl]methyl}cyclopropanecarboxamide] gave an inhibition constant Ki of 0.01 to 0.1 µM.

Molecule `Clc1cc(-c2c[nH]c3ncccc23)cc(NCC2CCCN(CC3CC3)C2)n1` (centres unmarked) [Example 318, 6-chloro-N-{[1-(cyclopropylmethyl)piperidin-3-yl]methyl}-4-(1H-pyrrolo[2,3-b]pyridin-3-yl)pyridin-2-amine] displayed a Ki of 0.01 to 0.1 µM.

Regarding `Clc1cc(-c2c[nH]c3ncccc23)cc(NC2CCCN(CC3CC3)C2)n1` (centres unmarked) [Example 319, 6-chloro-N-[1-(cyclopropylmethyl)piperidin-3-yl]-4-(1H-pyrrolo[2,3-b]pyridin-3-yl)pyridin-2-amine], the inhibition constant Ki was below 0.01 µM.

The molecule `O=C(Cc1cc2ccccc2[nH]1)Nc1cc(-c2c[nH]c3ncccc23)cc(Cl)n1` [Example 320, N-[6-chloro-4-(1H-pyrrolo[2,3-b]pyridin-3-yl)pyridin-2-yl]-2-(1H-indol-2-yl)acetamide] showed a Ki of 0.01 to 0.1 µM.

In the case of `Clc1cc(-c2c[nH]c3ncccc23)cc(N[C@H]2CC[C@H](NC3CCCC3)CC2)n1` [Example 321, trans-N-[6-chloro-4-(1H-pyrrolo[2,3-b]pyridin-3-yl)pyridin-2-yl]-N′-cyclopentylcyclohexane-1,4-diamine], the inhibitory constant (Ki) was below 0.01 µM.

On to `CC(C)CN[C@H]1CC[C@H](Nc2cc(-c3c[nH]c4ncccc34)cc(Cl)n2)CC1` [Example 322, trans-N-[6-chloro-4-(1H-pyrrolo[2,3-b]pyridin-3-yl)pyridin-2-yl]-N′-(2-methylpropyl)cyclohexane-1,4-diamine], for which the inhibition constant (Ki) is below 0.01 µM.

`Clc1cc(-c2c[nH]c3ncccc23)cc(NC2CCCC(N3CCCC3)C2)n1` (centres unmarked) [Example 323, 6-chloro-N-[3-(pyrrolidin-1-yl)cyclohexyl]-4-(1H-pyrrolo[2,3-b]pyridin-3-yl)pyridin-2-amine]: the Ki is below 0.01 µM.

The molecule `Clc1cc(-c2c[nH]c3ncccc23)cc(NC2CCCC(N3CCCCC3)C2)n1` (centres unmarked) [Example 324, 6-chloro-N-[3-(piperidin-1-yl)cyclohexyl]-4-(1H-pyrrolo[2,3-b]pyridin-3-yl)pyridin-2-amine] registered a Ki below 0.01 µM.

In turn, `CNCC(=O)N[C@H]1CC[C@H](Nc2cc(-c3c[nH]c4ncccc34)cc(Cl)n2)CC1` [Example 325, N-(trans-4-{[6-chloro-4-(1H-pyrrolo[2,3-b]pyridin-3-yl)pyridin-2-yl]amino}cyclohexyl)-N~2~-methylglycinamide] came in with a Ki below 0.01 µM.

Consider `CN[C@@H](C)C(=O)NC1CCCC(Nc2cc(-c3c[nH]c4ncccc34)cc(Cl)n2)C1` (some centres unmarked) [Example 327, N-(3-{[6-chloro-4-(1H-pyrrolo[2,3-b]pyridin-3-yl)pyridin-2-yl]amino}cyclohexyl)-N~2~-methylalaninamide], for which the inhibition constant (Ki) was below 0.01 µM.

Molecule `CN[C@@H](C(=O)N[C@H]1CCC[C@H](Nc2cc(-c3c[nH]c4ncccc34)cc(Cl)n2)C1)c1ccccc1` [Example 328, (2R)—N-[(1S,3S)-3-{[6-chloro-4-(1H-pyrrolo[2,3-b]pyridin-3-yl)pyridin-2-yl]amino}cyclohexyl]-2-(methylamino)-2-phenylethanamide] yielded a Ki below 0.01 µM.

`CN[C@@H](C(=O)N[C@@H]1CCC[C@@H](Nc2cc(-c3c[nH]c4ncccc34)cc(Cl)n2)C1)c1ccccc1` [Example 329, (2R)—N-[(1R,3R)-3-{[6-chloro-4-(1H-pyrrolo[2,3-b]pyridin-3-yl)pyridin-2-yl]amino}cyclohexyl]-2-(methylamino)-2-phenylethanamide] registered a Ki below 0.01 µM.

Turning to `O=S(=O)(N[C@@H]1CCCC[C@H]1Nc1cc(-c2c[nH]c3ncccc23)cc(Cl)n1)C1CC1` [Example 330, N-[(1R,2R)-2-{[6-chloro-4-(1H-pyrrolo[2,3-b]pyridin-3-yl)pyridin-2-yl]amino}cyclohexyl]cyclopropanesulfonamide], the inhibition constant (Ki) lay in the range of 0.01 to 0.1 µM.

`O=S(=O)(Nc1cc(-c2c[nH]c3ncccc23)cc(Cl)n1)c1ccc(F)cc1` [Example 331, N-[6-chloro-4-(1H-pyrrolo[2,3-b]pyridin-3-yl)pyridin-2-yl]-4-fluorobenzenesulfonamide] returned an inhibitory constant (Ki) below 0.01 µM.

For the molecule `O=S(=O)(Nc1cc(-c2c[nH]c3ncccc23)cc(Cl)n1)C1CC1` [Example 332, N-[6-chloro-4-(1H-pyrrolo[2,3-b]pyridin-3-yl)pyridin-2-yl]cyclopropanesulfonamide], the inhibitory constant (Ki) is below 0.01 µM.

As for `CCN(CC)CC(C)(C)CNc1cc(-c2c[nH]c3ncccc23)cc(Cl)n1` [Example 333, N′-[6-chloro-4-(1H-pyrrolo[2,3-b]pyridin-3-yl)pyridin-2-yl]-N,N-diethyl-2,2-dimethylpropane-1,3-diamine], the Ki is below 0.01 µM.

Consider `CCN(CC)[C@H]1CC[C@H](Nc2cc(-c3c[nH]c4ncccc34)cc(Cl)n2)CC1` [Example 334, trans-N′-[6-chloro-4-(1H-pyrrolo[2,3-b]pyridin-3-yl)pyridin-2-yl]-N,N-diethylcyclohexane-1,4-diamine], for which the inhibitory constant (Ki) was below 0.01 µM.

`O=C1CC[C@H](C(=O)N[C@H]2CC[C@H](Nc3cc(-c4c[nH]c5ncccc45)cc(Cl)n3)CC2)N1` [Example 335, N-(trans-4-{[6-chloro-4-(1H-pyrrolo[2,3-b]pyridin-3-yl)pyridin-2-yl]amino}cyclohexyl)-5-oxo-D-prolinamide] gave a Ki below 0.01 µM.

`O=C1CC[C@@H](C(=O)N[C@H]2CC[C@H](Nc3cc(-c4c[nH]c5ncccc45)cc(Cl)n3)CC2)N1` [Example 338, N-(trans-4-{[6-chloro-4-(1H-pyrrolo[2,3-b]pyridin-3-yl)pyridin-2-yl]amino}cyclohexyl)-5-oxo-L-prolinamide]: the Ki was below 0.01 µM.

As to `CN1CCCCC1C(=O)NC1CCCC(Nc2cc(-c3c[nH]c4ncccc34)cc(Cl)n2)C1` (centres unmarked) [Example 339, N-(3-{[6-chloro-4-(1H-pyrrolo[2,3-b]pyridin-3-yl)pyridin-2-yl]amino}cyclohexyl)-1-methylpiperidine-2-carboxamide], the inhibition constant Ki was below 0.01 µM.

In the case of `O=C(CN1CCCCCC1)NC1CCCC(Nc2cc(-c3c[nH]c4ncccc34)cc(Cl)n2)C1` (centres unmarked) [Example 340, 2-(azepan-1-yl)-N-(3-{[6-chloro-4-(1H-pyrrolo[2,3-b]pyridin-3-yl)pyridin-2-yl]amino}cyclohexyl)acetamide], the Ki was below 0.01 µM.

With `O=C(N[C@H]1CC[C@H](Nc2cc(-c3c[nH]c4ncccc34)cc(Cl)n2)CC1)C1CCCC1` [Example 341, N-(trans-4-{[6-chloro-4-(1H-pyrrolo[2,3-b]pyridin-3-yl)pyridin-2-yl]amino}cyclohexyl)cyclopentanecarboxamide], the Ki is below 0.01 µM.

`O=C(NC1CCCC(Nc2cc(-c3c[nH]c4ncccc34)cc(Cl)n2)C1)C1CCNC1` (centres unmarked) [Example 343, N-(3-{[6-chloro-4-(1H-pyrrolo[2,3-b]pyridin-3-yl)pyridin-2-yl]amino}cyclohexyl)pyrrolidine-3-carboxamide]: the Ki was below 0.01 µM.

For `O=C(NC1CCCC(Nc2cc(-c3c[nH]c4ncccc34)cc(Cl)n2)C1)C1CCNCC1` (centres unmarked) [Example 344, N-(3-{[6-chloro-4-(1H-pyrrolo[2,3-b]pyridin-3-yl)pyridin-2-yl]amino}cyclohexyl)piperidine-4-carboxamide], the Ki was below 0.01 µM.

For `O=C(NC1CCCC(Nc2cc(-c3c[nH]c4ncccc34)cc(Cl)n2)C1)C1CCCNC1` (centres unmarked) [Example 345, N-(3-{[6-chloro-4-(1H-pyrrolo[2,3-b]pyridin-3-yl)pyridin-2-yl]amino}cyclohexyl)piperidine-3-carboxamide], the inhibition constant (Ki) is below 0.01 µM.

In the case of `CN1CCC(C(=O)NC2CCCC(Nc3cc(-c4c[nH]c5ncccc45)cc(Cl)n3)C2)C1` (centres unmarked) [Example 346, N-(3-{[6-chloro-4-(1H-pyrrolo[2,3-b]pyridin-3-yl)pyridin-2-yl]amino}cyclohexyl)-1-methylpyrrolidine-3-carboxamide], the Ki is below 0.01 µM.

On to `CN1CCC(C(=O)NC2CCCC(Nc3cc(-c4c[nH]c5ncccc45)cc(Cl)n3)C2)CC1` (centres unmarked) [Example 347, N-(3-{[6-chloro-4-(1H-pyrrolo[2,3-b]pyridin-3-yl)pyridin-2-yl]amino}cyclohexyl)-1-methylpiperidine-4-carboxamide], for which the Ki is below 0.01 µM.
